Measured values as given in PubChem BioAssay AID248 (DTP/NCI, 2004).
Values joined by “and” are separate entries in the source; they are usually repeats but may differ in a detail not shown here. Equal entries are not always repeated. Toxic doses and inconclusive results are not listed. No stated cut-off is given here; in the data, active means T/C of 150% or more; inactive means T/C below 125%.

Tested on: L1210 leukemia ip in BDF1 mice, survival T/C
Assay: NCI In Vivo Anticancer Drug Screen. Data for tumor model L1210 Leukemia (intraperitoneal) in B6D2F1 (BDF1) mice
Settings: endpoint: mean survival time, higher = longer survival
Summary of the method: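 Mice bearing the transplanted tumor received compound or vehicle. Survival of the treated group was divided by that of the vehicle-treated control group to give the ratio.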

[1] = dose: 50.0 mg/kg/injection, schedule: Q01DX009 (ip), vehicle: saline with Tween-80
[2] = dose: 100.0 mg/kg/injection, schedule: Q01DX009 (ip), vehicle: saline with Tween-80
[3] = dose: 200.0 mg/kg/injection, schedule: Q01DX009 (ip), vehicle: saline with Tween-80
[4] = dose: 100.0 mg/kg/injection, schedule: Q04DX003 (ip), vehicle: saline with Tween-80
[5] = dose: 200.0 mg/kg/injection, schedule: Q04DX003 (ip), vehicle: saline with Tween-80
[6] = dose: 200.0 mg/kg/injection, schedule: Q01DX001 (ip), vehicle: Klucel (hydroxypropylcellulose) (HPC)
[7] = dose: 400.0 mg/kg/injection, schedule: Q01DX001 (ip), vehicle: Klucel (hydroxypropylcellulose) (HPC)
[8] = dose: 100.0 mg/kg/injection, schedule: Q01DX001 (ip), vehicle: Klucel (hydroxypropylcellulose) (HPC)
[9] = dose: 100.0 mg/kg/injection, schedule: Q01DX009 (ip), vehicle: Klucel (hydroxypropylcellulose) (HPC)
[10] = dose: 100.0 mg/kg/injection, schedule: Q04DX003 (ip), vehicle: Klucel (hydroxypropylcellulose) (HPC)
[11] = dose: 200.0 mg/kg/injection, schedule: Q04DX003 (ip), vehicle: Klucel (hydroxypropylcellulose) (HPC)
[12] = dose: 400.0 mg/kg/injection, schedule: Q04DX003 (ip), vehicle: Klucel (hydroxypropylcellulose) (HPC)

Measured: T/C

COc1ccccc1/C=N\N/C(N)=N\N=C\c1ccccc1OC
inactive: dose: 15.0 mg/kg/injection, schedule: Q01DX Z (ip), vehicle: carboxymethylcellulose (CMC) 98 % of control | dose: 30.0 mg/kg/injection, schedule: Q01DX Z (ip), vehicle: carboxymethylcellulose (CMC) 103 % of control | dose: 60.0 mg/kg/injection, schedule: Q01DX Z (ip), vehicle: carboxymethylcellulose (CMC) 103 % of control and 117 % of control | dose: 120.0 mg/kg/injection, schedule: Q01DX Z (ip), vehicle: carboxymethylcellulose (CMC) 101 % of control and 117 % of control | dose: 240.0 mg/kg/injection, schedule: Q01DX Z (ip), vehicle: carboxymethylcellulose (CMC) 108 % of control | dose: 240.0 mg/kg/injection, schedule: Q01DX Z (oral), vehicle: carboxymethylcellulose (CMC) 97 % of control | dose: 480.0 mg/kg/injection, schedule: Q01DX Z (ip), vehicle: carboxymethylcellulose (CMC) 121 % of control | dose: 480.0 mg/kg/injection, schedule: Q01DX Z (oral), vehicle: carboxymethylcellulose (CMC) 105 % of control | dose: 960.0 mg/kg/injection, schedule: Q01DX Z (oral), vehicle: carboxymethylcellulose (CMC) 95 % of control | dose: 1920.0 mg/kg/injection, schedule: Q01DX Z (oral), vehicle: carboxymethylcellulose (CMC) 105 % of control

CCOc1nn2nnnc2c2ccccc12
inactive: dose: 37.5 mg/kg/injection, schedule: Q04DX003 (ip), vehicle: saline with Tween-80 97 % of control | dose: 75.0 mg/kg/injection, schedule: Q04DX003 (ip), vehicle: saline with Tween-80 97 % of control | dose: 150.0 mg/kg/injection, schedule: Q04DX003 (ip), vehicle: saline with Tween-80 103 % of control

CNS(=O)(=O)c1ccc(NC(=O)CCl)cc1
inactive: [1] 104 % of control | dose: 100.0 mg/kg/injection, schedule: Q01DX001 (ip), vehicle: other 104 % of control | [2] 110 % of control | dose: 100.0 mg/kg/injection, schedule: Q04DX003 (ip), vehicle: other 101 % of control | dose: 200.0 mg/kg/injection, schedule: Q01DX001 (ip), vehicle: other 103 % of control | [3] 119 % of control | dose: 200.0 mg/kg/injection, schedule: Q04DX003 (ip), vehicle: other 98 % of control | dose: 400.0 mg/kg/injection, schedule: Q01DX001 (ip), vehicle: other 100 % of control

O=S([O-])c1ccc(Cl)cc1.O=S([O-])c1ccc(Cl)cc1.[Zn+2]
inactive: dose: 75.0 mg/kg/injection, schedule: Q01DX001 (ip), vehicle: saline 101 % of control | dose: 150.0 mg/kg/injection, schedule: Q01DX001 (ip), vehicle: saline 101 % of control | dose: 300.0 mg/kg/injection, schedule: Q01DX001 (ip), vehicle: saline 110 % of control

[N-]=[N+]=NC1=C(c2ccccc2)C(=O)C(N=[N+]=[N-])=C(c2ccccc2)C1=O
inactive: dose: 100.0 mg/kg/injection, schedule: Q01DX001 (ip), vehicle: saline 88 % of control | dose: 200.0 mg/kg/injection, schedule: Q01DX001 (ip), vehicle: saline 95 % of control | dose: 400.0 mg/kg/injection, schedule: Q01DX001 (ip), vehicle: saline 90 % of control

NC(CS(=O)c1ccc(Cl)cc1)C(=O)O (stereo not drawn)
inactive: [4] 97 % of control | [5] 92 % of control

OCCCC1CC2C=CC1C2 (stereo not drawn)
inactive: dose: 75.0 mg/kg/injection, schedule: Q01DX001 (ip), vehicle: other 102 % of control | dose: 150.0 mg/kg/injection, schedule: Q01DX001 (ip), vehicle: other 94 % of control

Oc1ccc2ccnc(Cc3ccc(Br)cc3)c2c1
inactive: [6] 89 % of control | [7] 89 % of control

CCOC(=O)Cc1cc(=O)[nH]n(-c2ccccc2)c1=O
inactive: dose: 100.0 mg/kg/injection, schedule: Q04DX002 (ip), vehicle: gum acacia 100 % of control | dose: 200.0 mg/kg/injection, schedule: Q04DX002 (ip), vehicle: gum acacia 89 % of control | dose: 400.0 mg/kg/injection, schedule: Q04DX002 (ip), vehicle: gum acacia 96 % of control

NCCNC(=O)c1ccccc1
inactive: dose: 100.0 mg/kg/injection, schedule: Q01DX009 (ip), vehicle: saline 94 % of control | dose: 200.0 mg/kg/injection, schedule: Q01DX009 (ip), vehicle: saline 100 % of control

NC(=Nc1ccccc1)c1ccc(Cl)cc1
inactive: dose: 25.0 mg/kg/injection, schedule: Q04DX002 (ip), vehicle: Klucel (hydroxypropylcellulose) (HPC) 93 % of control | dose: 50.0 mg/kg/injection, schedule: Q04DX002 (ip), vehicle: Klucel (hydroxypropylcellulose) (HPC) 97 % of control | dose: 100.0 mg/kg/injection, schedule: Q04DX002 (ip), vehicle: Klucel (hydroxypropylcellulose) (HPC) 101 % of control and 115 % of control

O=C1NCCN1c1cccc([N+](=O)[O-])c1
inactive: dose: 25.0 mg/kg/injection, schedule: Q01DX009 (ip), vehicle: saline with Tween-80 108 % of control | [1] 103 % of control | [8] 96 % of control | [2] 98 % of control

Cc1ccc(S(=O)(=O)/N=S(\Cc2ccccc2)c2ccccc2)cc1 (stereo not drawn)
inactive: [9] 92 % of control | [10] 93 % of control | dose: 200.0 mg/kg/injection, schedule: Q01DX009 (ip), vehicle: Klucel (hydroxypropylcellulose) (HPC) 89 % of control | [11] 97 % of control | dose: 400.0 mg/kg/injection, schedule: Q01DX009 (ip), vehicle: Klucel (hydroxypropylcellulose) (HPC) 92 % of control | [12] 98 % of control

C=CCc1cnc(N)[nH]c1=O
inactive: [4] 103 % of control | [5] 97 % of control | dose: 400.0 mg/kg/injection, schedule: Q04DX003 (ip), vehicle: saline with Tween-80 100 % of control

CC(=O)CCC(CCC(C)=O)(CCC(C)=O)[N+](=O)[O-]
inactive: dose: 100.0 mg/kg/injection, schedule: Q01DX001 (ip), vehicle: carboxymethylcellulose (CMC) 104 % of control | dose: 200.0 mg/kg/injection, schedule: Q01DX001 (ip), vehicle: carboxymethylcellulose (CMC) 104 % of control | dose: 400.0 mg/kg/injection, schedule: Q01DX001 (ip), vehicle: carboxymethylcellulose (CMC) 98 % of control

O=[N+]([O-])/C=C/c1c(Cl)cccc1Cl
inactive: dose: 6.25 mg/kg/injection, schedule: Q01DX005 (ip), vehicle: other 108 % of control | dose: 12.5 mg/kg/injection, schedule: Q01DX005 (ip), vehicle: other 106 % of control | dose: 25.0 mg/kg/injection, schedule: Q01DX005 (ip), vehicle: other 93 % of control | dose: 50.0 mg/kg/injection, schedule: Q01DX005 (ip), vehicle: saline with Tween-80 101 % of control | dose: 50.0 mg/kg/injection, schedule: Q01DX009 (ip), vehicle: Klucel (hydroxypropylcellulose) (HPC) 95 % of control | [9] 93 % of control | [10] 94 % of control | [11] 100 % of control | [12] 103 % of control

COc1ccc(C(=O)/C=C/c2ccc(O)cc2)cc1
inactive: dose: 75.0 mg/kg/injection, schedule: Q04DX003 (ip), vehicle: saline 100 % of control | dose: 150.0 mg/kg/injection, schedule: Q04DX003 (ip), vehicle: saline 96 % of control | dose: 300.0 mg/kg/injection, schedule: Q04DX003 (ip), vehicle: saline 93 % of control

CCS(=O)(=O)CS(=O)(=O)c1ccc(C)cc1
inactive: [8] 103 % of control | [6] 103 % of control | [7] 103 % of control

Cc1ccc(S(=O)(=O)Nc2ccccc2-c2nc3cc(Cl)ccc3c(=O)o2)cc1
inactive: [2] 86 % of control | [3] 87 % of control | dose: 400.0 mg/kg/injection, schedule: Q01DX009 (ip), vehicle: saline with Tween-80 89 % of control

CC1CN(Cc2ccccc2)CC(C)N1 (stereo not drawn)
inactive: dose: 25.0 mg/kg/injection, schedule: Q01DX009 (ip), vehicle: water 95 % of control | dose: 50.0 mg/kg/injection, schedule: Q01DX009 (ip), vehicle: water 95 % of control | dose: 100.0 mg/kg/injection, schedule: Q01DX009 (ip), vehicle: water 104 % of control | dose: 100.0 mg/kg/injection, schedule: Q04DX003 (ip), vehicle: water 110 % of control | dose: 200.0 mg/kg/injection, schedule: Q04DX003 (ip), vehicle: water 115 % of control

CNc1ncnc2c1c(Br)cn2C1OC(CO)C(O)C1O (stereo not drawn)
inactive: dose: 5.0 mg/kg/injection, schedule: Q01DX001 (ip), vehicle: saline 104 % of control | dose: 10.0 mg/kg/injection, schedule: Q01DX001 (ip), vehicle: saline 104 % of control | dose: 20.0 mg/kg/injection, schedule: Q01DX001 (ip), vehicle: saline 104 % of control
